Laboratory results reported in patent US20220274979A1 (Bayer Pharma Aktiengesellschaft, priority 2018, published 2022).

Biological target: T1, hSOS1 (hSOS1-mediated loading of hK-RasG12C-GDP) (Homo sapiens, UniProt Q07889)
T1 construct: hSOS1 (amino acid 564-1049); made in house; host or cells: E. coli BL21 (DE3)
T1 sequence (Q07889 with tags, fused parts or gaps): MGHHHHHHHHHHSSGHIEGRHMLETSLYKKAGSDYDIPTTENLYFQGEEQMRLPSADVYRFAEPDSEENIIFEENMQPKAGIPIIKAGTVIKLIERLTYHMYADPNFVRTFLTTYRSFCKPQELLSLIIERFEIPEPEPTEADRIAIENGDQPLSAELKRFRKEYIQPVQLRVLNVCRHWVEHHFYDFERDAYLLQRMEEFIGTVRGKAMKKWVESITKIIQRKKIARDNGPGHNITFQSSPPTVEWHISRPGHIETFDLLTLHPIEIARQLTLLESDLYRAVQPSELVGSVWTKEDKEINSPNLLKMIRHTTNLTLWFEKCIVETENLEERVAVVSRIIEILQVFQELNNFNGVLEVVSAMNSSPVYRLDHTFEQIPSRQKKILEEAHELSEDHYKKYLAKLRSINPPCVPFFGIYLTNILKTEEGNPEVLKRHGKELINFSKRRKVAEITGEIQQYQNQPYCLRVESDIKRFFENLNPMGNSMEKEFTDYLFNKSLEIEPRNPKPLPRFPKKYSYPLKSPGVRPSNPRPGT
Test: Biochemical Assay 3: hK-RasG12C activation assay by hSOS1 (loading with fluorescent GTP analog, HTRF)
Conditions: no GTP
Source text: Biochemical Assay 3: hK-RasG12C Activation Assay by hSOS1
K-Ras is a small GTPase that can bind GDP and GTP. The guanine nucleotide exchange factor SOS1 catalyzes the activation of K-Ras by promoting the exchange of GDP to GTP. SOS1 binds to K-Ras-GDP thereby opening the GDP-binding pocket to facilitate GDP release. Rebinding of excess nucleotide leads to dissociation of the K-Ras-SOS1 intermediate complex leaving K-Ras loaded with the nucleotide.
This assay quantifies human SOS1-(hSOS1-)mediated loading of human K-Ras^G12C-GDP (hK-RasG12C-GDP) with a fluorescent GTP-analog. Detection of successful loading is achieved by measuring homogenous time-resolved fluorescence resonance energy transfer (HTRF) from antiGST-Terbium (FRET donor) bound to GST-hK-RasG12C (see below) to the loaded fluorescent GTP analog (FRET-acceptor).
The fluorescent GTP-analog EDA-GTP-Dy647P1 (2′/3′-O-(2-Aminoethyl-carbamoyl)-guanosine-5′-triphosphate labelled with Dy647P1 (Dyomics GmbH, Germany)) was synthesized by Jena Biosciences GmbH (Germany) and supplied as a 1 mM aqueous solution.
The assay buffer contained 10 mM HEPES pH 7.4 (Applichem), 150 mM NaCl (Sigma), 5 mM MgCl2 (Sigma), 1 mM DTT (Thermofisher), 0.05% BSA Fraction V, pH 7.0, (ICN Biomedicals), 0.0025% (v/v) Igepal (Sigma).
Concentrations of protein batches used were optimized to be within the linear range of the HTRF signal. A hRas working solution was prepared in assay buffer containing typically 100 nM GST-hK-RasG12C and 2 nM antiGST-Tb (Cisbio, France). A hSOS1 working solution was prepared in assay buffer containing typically 20 nM hSOS1 and 200 nM EDA-GTP-Dy647P1. An inhibitor control solution was prepared in assay buffer containing 200 nM EDA-GTP-Dy647P1 without hSOS1.
Fifty nl of a 100-fold concentrated solution of the test compound in DMSO were transferred into a black microtiter test plate (384 or 1536, Greiner Bio-One, Germany) For this, either a Hummingbird liquid handler (Digilab, Mass., USA) or an Echo acoustic system (Labcyte, Calif., USA) was used.
All steps of the assay were performed at 20° C. A volume of 2.5 μl of the hRas working solution was added to all wells of the test plate using a Multidrop dispenser (Thermo Labsystems). After 10 min. preincubation, 2.5 μl of the hSOS1 working solution were added to all wells except for those wells at the side of the test plate that were subsequently filled with 2.5 μl of the inhibitor control solution. After […] incubation the fluorescence was measured with a Pherastar (BMG, Germany) using the HTRF module (excitation 337 nm, emission 1: 620 nm, emission 2:665 nm).
IC50 values were calculated by 4-Parameter fitting using a commercial software package (Genedata Screener, Switzerland).

SMILES	IC50 [nM]
Cc1nc(N[C@H](C)c2cccc(Br)c2)c2nc(Oc3ccccc3)ncc2n1 [Example 25, N-[(1R)-1-(3-bromophenyl)ethyl]-2-methyl-6-phenoxypyrimido[5,4-d]pyrimidin-4-amine]	> 20000
Cc1nc(N[C@H](C)c2cccc(Br)c2)c2cc(OCCN(C)C)ncc2n1 [Example 78, N-[(1R)-1-(3-bromophenyl)ethyl]-6-[2-(dimethylamino)ethoxy]-2-methylpyrido[3,4-d]pyrimidin-4-amine]	2270
Cc1nc(N[C@H](C)c2cccc(Br)c2)c2nc(N(C)C)ncc2n1 [Example 21]	≥ 40000
CCOc1cc2c(N[C@H](C)c3ccc(Br)cc3)nc(C)nc2cn1 [Example 13, N-[(1R)-1-(4-bromophenyl)ethyl]-6-ethoxy-2-methylpyrido[3,4-d]pyrimidin-4-amine]	7980
CCOc1cc2c(N[C@H](C)c3ccc(C#N)cc3)nc(C)nc2cn1 [Example 18, 4-{(1R)-1-[(6-ethoxy-2-methylpyrido[3,4-d]pyrimidin-4-yl)amino]ethyl}benzonitrile]	4540
Cc1nc(N[C@H](C)c2cccc(Br)c2)c2cc(NCCN3CCOCC3)ncc2n1 [Example 39]	1640
CC(=O)NCCOc1cc2c(N[C@H](C)c3cccc(Br)c3)nc(C)nc2cn1 [Example 62, N-{2-[(4-{[(1R)-1-(3-bromophenyl)ethyl]amino}-2-methylpyrido[3,4-d]pyrimidin-6-yl)oxy]ethyl}acetamide]	735
Cc1nc(NC(C)c2ccc(-c3ccccc3CN(C)C)s2)c2cc(N3CC(NC(=O)C4CCCCC4)C3)ncc2n1 (stereo not shown) [Example 90, N-[1-(4-{[1-(5-{2-[(dimethylamino)methyl]phenyl}thiophen-2-yl)ethyl]amino}-2-methylpyrido[3,4-d]pyrimidin-6-yl)azetidin-3-yl]cyclohexanecarboxamide]	190
Cc1nc(N[C@H](C)c2cccc(Br)c2)c2nc(OCc3ccccc3)ncc2n1 [Example 20, 6-(benzyloxy)-N-[(1R)-1-(3-bromophenyl)ethyl]-2-methylpyrimido[5,4-d]pyrimidin-4-amine]	≥ 40000
Cc1nc(NC(C)c2ccc(-c3ccccc3CN(C)C)s2)c2cc(N3CC(NC(=O)CC4CC4)C3)ncc2n1 (stereo not shown) [Example 91, 2-cyclopropyl-N-[1-(4-{[1-(5-{2-[(dimethylamino)methyl]phenyl}thiophen-2-yl)ethyl]amino}-2-methylpyrido[3,4-d]pyrimidin-6-yl)azetidin-3-yl]acetamide]	179
Cc1nc(N[C@H](C)c2cccc(Br)c2)c2cc(NCCS(C)(=O)=O)ncc2n1 [Example 83]	1090
Cc1nc(NC(C)c2ccc(-c3ccccc3CN(C)C)s2)c2cc(NCCn3ccnc3)ncc2n1 (stereo not shown) [Example 56, N4-[1-(5-{2-[(dimethylamino)methyl]phenyl}-2-thienyl)ethyl]-N6-[2-(1H-imidazol-1-yl)ethyl]-2-methylpyrido[3,4-d]pyrimidine-4,6-diamine]	89.5
Cc1nc(N[C@H](C)c2cccc(Br)c2)c2nc(N3CCOCC3)ncc2n1 [Example 22, N-[(1R)-1-(3-bromophenyl)ethyl]-2-methyl-6-(morpholin-4-yl)pyrimido[5,4-d]pyrimidin-4-amine]	12500
CNCc1ccccc1-c1ccc(C(C)Nc2nc(C)nc3cnc(F)cc23)s1 (stereo not shown) [Example 36, 6-fluoro-2-methyl-N-[1-(5-{2-[(methylamino)methyl]phenyl}thiophen-2-yl)ethyl]pyrido[3,4-d]pyrimidin-4-amine]	> 20000
CCOc1cc2c(N[C@H](C)c3cccc(Br)c3)nc(C)nc2cn1 [Example 5, N-[(1R)-1-(3-bromophenyl)ethyl]-6-ethoxy-2-methylpyrido[3,4-d]pyrimidin-4-amine]	2150
Cc1nc(NC(C)c2ccc(-c3ccccc3CN(C)C)s2)c2cc(N3CC(NS(=O)(=O)c4ccccc4)C3)ncc2n1 (stereo not shown) [Example 94, N-[1-(4-{[1-(5-{2-[(dimethylamino)methyl]phenyl}thiophen-2-yl)ethyl]amino}-2-methylpyrido[3,4-d]pyrimidin-6-yl)azetidin-3-yl]benzenesulfonamide]	170
CC(=O)NCCNc1cc2c(N[C@H](C)c3cccc(Br)c3)nc(C)nc2cn1 [Example 44, N-{2-[(4-{[(1R)-1-(3-bromophenyl)ethyl]amino}-2-methylpyrido[3,4-d]pyrimidin-6-yl)amino]ethyl}acetamide]	1640
Cc1nc(NC(C)c2ccc(-c3ccccc3CN(C)C)s2)c2cc(OCCO)ncc2n1 (stereo not shown) [Example 74, 2-[(4-{[1-(5-{2-[(dimethylamino)methyl]phenyl}thiophen-2-yl)ethyl]amino}-2-methylpyrido[3,4-d]pyrimidin-6-yl)oxy]ethanol]	107
Cc1nc(NC(C)c2ccc(-c3ccccc3CN(C)C)s2)c2cc(N3CC(NC(=O)c4ccccc4)C3)ncc2n1 (stereo not shown) [Example 88, N-[1-(4-{[1-(5-{2-[(dimethylamino)methyl]phenyl}thiophen-2-yl)ethyl]amino}-2-methylpyrido[3,4-d]pyrimidin-6-yl)azetidin-3-yl]benzamide]	173
COc1cc2c(N[C@H](C)c3ccc(F)c(C4CC4)c3)nc(C)nc2cn1 [Example 12]	8170
Cc1nc(NC(C)c2ccc(-c3ccccc3CN(C)C)s2)c2cc(OCCCN(C)C)ncc2n1 (stereo not shown) [Example 72, N-[1-(5-{2-[(dimethylamino)methyl]phenyl}thiophen-2-yl)ethyl]-6-[3-(dimethylamino)propoxy]-2-methylpyrido[3,4-d]pyrimidin-4-amine]	49
COc1cc2c(NC(C)c3cccc4nn(C)cc34)nc(C)nc2cn1 (stereo not shown) [Example 17, 6-methoxy-2-methyl-N-[1-(2-methyl-2H-indazol-4-yl)ethyl]pyrido[3,4-d]pyrimidin-4-amine]	≥ 40000
COc1cc2c(NC(C)c3ccc(-c4ccccc4CN(C)C)s3)nc(C)nc2cn1 (stereo not shown) [Example 64, N-[1-(5-{2-[(dimethylamino)methyl]phenyl}thiophen-2-yl)ethyl]-6-methoxy-2-methylpyrido[3,4-d]pyrimidin-4-amine]	80.3
Cc1nc(N[C@H](C)c2cccc(Br)c2)c2cc(N3CCNC(=O)C3)ncc2n1 [Example 45]	459
COc1cc2c(N[C@H](C)c3ccc(F)c(Cl)c3)nc(C)nc2cn1 [Example 8]	> 20000
Cc1nc(NC(C)c2ccc(-c3ccccc3CN(C)C)s2)c2cc(OCC3CC3)ncc2n1 (stereo not shown) [Example 73, 6-(cyclopropylmethoxy)-N-[1-(5-{2-[(dimethylamino)methyl]phenyl}thiophen-2-yl)ethyl]-2-methylpyrido[3,4-d]pyrimidin-4-amine]	138
Cc1nc(NC(C)c2ccc(-c3ccccc3CN(C)C)s2)c2cc(OC3CCS(=N)(=O)CC3)ncc2n1 (stereo not shown) [Example 77, N-[1-(5-{2-[(dimethylamino)methyl]phenyl}-2-thienyl)ethyl]-6-[(1-imino-1-oxidohexahydro-1lambda4-thiopyran-4-yl)oxy]-2-methylpyrido[3,4-d]pyrimidin-4-amine]	84.3
Cc1nc(NC(C)c2ccc(-c3ccccc3CN(C)C)s2)c2cc(N3CCC3)ncc2n1 (stereo not shown) [Example 71, 6-(azetidin-1-yl)-N-[1-(5-{2-[(dimethylamino)methyl]phenyl}thiophen-2-yl)ethyl]-2-methylpyrido[3,4-d]pyrimidin-4-amine]	82.5
